Results as given in paper PMC6036575, “Reincarnation of Bacteriocins From the Lactobacillus Pangenomic Graveyard” (Frontiers in Microbiology, 2018).
“Also recorded” adds a separate entry of the source.

Key:
L. innocua DPC3572 = assay: Bacteriocin activity (BU/ml), dilution series in well diffusion assay; type: cell-based, Listeria innocua; details: for Bacteriocin Activity (BU/ml) vs. L. innocua DPC3572: inverse of the highest dilution of bacterial supernatant showing activity in a well diffusion assay
Experimental: (§1) Bacteriocin activity was determined using well diffusion assays (WDAs). For Tuner^TM (DE3) E. coli transformants both the cell supernatant and the cell lysates were analyzed for antimicrobial activity, whilst only the supernatants were analyzed for L. paracasei NFBC338 cells. Supernatant was isolated by centrifugation of the liquid cultures at 4000 RCF for 15 min, these supernatants were then filtered using 0.20 μm membrane filters. For cell lysates, cell pellets were resuspended in 5 ml of phosphate-buffered saline (PBS), cells were lysed by sonication using a MSE Soniprep 150 (MSE, London, UK). Lysates were subsequently centrifuged at 4000 RCF for 15 min and the resulting supernatants were filtered using 0.20 μm membrane filters. For the indicator plates, 50 μl of an overnight culture of the indicator strain was added to the appropriate media containing 1% agar. Plates were cooled and 7 mm wells were bored in the agar. 50 μl of the cell supernatants/lysates being tested were added to each well and plates were refrigerated for 2 h prior to incubation under the appropriate conditions. WDAs were carried out in triplicate for each bacteriocin.
(§2) E. coli Tuner^TM (DE3) cells transformed with the newly constructed plasmids were grown in LB supplemented with glucose to maintain a low-copy number and bacteriocin expression was induced by co-incubation of the clones with 50 μM IPTG for 3 h. WDAs were used to identify bacteriocin activity from the bacterial supernatants and cell lysates. Bacteriocins were exclusively found in the bacterial supernatant. Antimicrobial activity was lower in cases where the native leader of the bacteriocin sequence was used; with only four of the nine strains displaying zones of inhibition against a sensitive indicator (pediocin 20336a has an identical leader to pediocin PA-1). For expression in L. paracasei NFBC338, cells were transformed by electroporation with the bacteriocin-containing pNZ44 vectors. Positive transformants were grown overnight and the neutralized cell free supernatant was used to identify bacteriocin production in WDAs.

32 indicator strains = assay: Well diffusion assays against the panel of 32 indicator strains; type: cell-based; details: for Total no. of strains inhibited: of 32 indicator strains, supernatant of E. coli transformants encoding the pediocin leader; for antimicrobial activity / spectrum, in words: crude supernatant from the E. coli heterologous host, pediocin PA-1 leader
Experimental: as §1, §2
(§3) The spectrum of activity was determined using WDAs against 32 indicator strains for bacteriocins produced by the E. coli transformants encoding the pediocin leader (Table 2). Despite being of the same class of bacteriocins, these novel antimicrobials display a varying spectrum of activity. […] Many of these bacteriocins, however, can inhibit a wide range of Gram positive bacteria including potential pathogens such as Enterococcus faecalis. As with most class IIa bacteriocins, these also display potent anti-listerial activity.

[1] = system: E. saccharolyticus DPC 4902; assay: Well diffusion assay, spectrum of bacteriocin activity; type: cell-based; details: 50 μl filtered supernatant of E. coli Tuner (DE3) transformants encoding the pediocin PA-1 leader, 7 mm wells, triplicate
Experimental: as §1, §2, §3

L. nodensis DSM 16982 = assay: as above; type: cell-based; details: 50 μl filtered supernatant of E. coli Tuner (DE3) transformants encoding the pediocin PA-1 leader, 7 mm wells, triplicate
Experimental: as §1, §2, §3

E.mundtii LMG 10748 = assay: as above; type: cell-based; details: 50 μl filtered supernatant of E. coli Tuner (DE3) transformants encoding the pediocin PA-1 leader, 7 mm wells, triplicate
Experimental: as §1, §2, §3

[2] = system: Li. monocytogenes DPC 6894; assay: as above; type: cell-based; details: 50 μl filtered supernatant of E. coli Tuner (DE3) transformants encoding the pediocin PA-1 leader, 7 mm wells, triplicate
Experimental: as §1, §2, §3

[3] = system: Li. monocytogenes DPC 6893; assay: as above; type: cell-based; details: 50 μl filtered supernatant of E. coli Tuner (DE3) transformants encoding the pediocin PA-1 leader, 7 mm wells, triplicate
Experimental: as §1, §2, §3

[4] = system: P. ethanolidurans DSM 22301; assay: as above; type: cell-based; details: 50 μl filtered supernatant of E. coli Tuner (DE3) transformants encoding the pediocin PA-1 leader, 7 mm wells, triplicate
Experimental: as §1, §2, §3

[5] = system: Enterococcus faecalis LMG 7397; assay: as above; type: cell-based; details: 50 μl filtered supernatant of E. coli Tuner (DE3) transformants encoding the pediocin PA-1 leader, 7 mm wells, 1% agar, triplicate
Experimental: as §1, §2, §3

P. clausenii DSM 14800 = assay: as above; type: cell-based; details: 50 μl filtered supernatant of E. coli Tuner (DE3) transformants encoding the pediocin PA-1 leader, 7 mm wells, triplicate
Experimental: as §1, §2, §3

L. mali DSM 20444 = assay: as above; type: cell-based; details: 50 μl filtered supernatant of E. coli Tuner (DE3) transformants encoding the pediocin PA-1 leader, 7 mm wells, triplicate
Experimental: as §1, §2, §3

[6] = system: Li. monocytogenes WSL 1416; assay: as above; type: cell-based; details: 50 μl filtered supernatant of E. coli Tuner (DE3) transformants encoding the pediocin PA-1 leader, 7 mm wells, triplicate
Experimental: as §1, §2, §3

[7] = system: Listeria innocua DPC 3572; assay: as above; type: cell-based; details: 50 μl filtered supernatant of E. coli Tuner (DE3) transformants encoding the pediocin PA-1 leader, 7 mm wells, triplicate
Experimental: as §1, §2, §3

L. plantarum DSM 13273 = assay: as above; type: cell-based; details: 50 μl filtered supernatant of E. coli Tuner (DE3) transformants encoding the pediocin PA-1 leader, 7 mm wells, triplicate
Experimental: as §1, §2, §3

L. apodemi DSM 16654 = assay: as above; type: cell-based; details: 50 μl filtered supernatant of E. coli Tuner (DE3) transformants encoding the pediocin PA-1 leader, 7 mm wells, triplicate
Experimental: as §1, §2, §3

L. crustorum JCM 15951 = assay: as above; type: cell-based; details: 50 μl filtered supernatant of E. coli Tuner (DE3) transformants encoding the pediocin PA-1 leader, 7 mm wells, triplicate
Experimental: as §1, §2, §3

L. amylophilus DSM 20509 = assay: as above; type: cell-based; details: 50 μl filtered supernatant of E. coli Tuner (DE3) transformants encoding the pediocin PA-1 leader, 7 mm wells, triplicate
Experimental: as §1, §2, §3

[8] = system: Pediococcus stilesii DSM 18001; assay: as above; type: cell-based; details: 50 μl filtered supernatant of E. coli Tuner (DE3) transformants encoding the pediocin PA-1 leader, 7 mm wells, triplicate
Experimental: as §1, §2, §3

[9] = produced by E. coli Tuner (DE3)
[10] = produced by L. paracasei NFBC338, neutralized cell free supernatant

Substance | Bacteriocin Activity (BU/ml) vs. L. innocua DPC3572 (L. innocua DPC3572; [9]) | Bacteriocin Activity (BU/ml) vs. L. innocua DPC3572 (L. innocua DPC3572; [10]) | Total no. of strains inhibited (32 indicator strains) | radius of the zone of inhibition [1] [millimeters] | radius of the zone of inhibition (E.mundtii LMG 10748) [millimeters] | radius of the zone of inhibition [2] [millimeters] | radius of the zone of inhibition [3] [millimeters] | radius of the zone of inhibition [4] [millimeters] | radius of the zone of inhibition [5] [millimeters] | radius of the zone of inhibition (L. mali DSM 20444) [millimeters] | radius of the zone of inhibition [6] [millimeters] | radius of the zone of inhibition [7] [millimeters] | radius of the zone of inhibition (L. apodemi DSM 16654) [millimeters] | also measured
SRYYGNGITCG-KHKCTVNWGQAWTCGVNRLANFGH–G————–NC— (bicyclic or more) [Agilicin (Agl), novel pediocin-like class IIa bacteriocin encoded by L. agilis DSM 20509, heterologously expressed] | ++ (++ = 320 – 2560 BU/ml) | ++ (++ = 320 – 2560 BU/ml) | 14 | 3.33 ± 0.47 | 3 ± 0 | 4 ± 0 | 2 ± 0 | 3.33 ± 0.47 | 2.17 ± 0.24 | 4.50 ± 0.41 | 2 ± 0.82 | 5 ± 0 | 2.67 ± 0.47 | radius of the zone of inhibition (L. nodensis DSM 16982): 3.50 ± 0.71 millimeters; radius of the zone of inhibition (P. clausenii DSM 14800): 0.67 ± 0.47 millimeters; radius of the zone of inhibition (L. plantarum DSM 13273): 0.33 ± 0.47 millimeters; radius of the zone of inhibition (L. crustorum JCM 15951): 0.33 ± 0.47 millimeters
–KNYGNGVYCTKKHGYKVDWGQAWSIIGNNSAANSTTRGAAGWKSK—- [Aquaticin (Aqu), novel pediocin-like class IIa bacteriocin encoded by L. aquaticus DSM 21051; peptide not identified by MALDI-TOF] | – | – | 0 | – | – | – | – | – | – | – | – | – | – | antimicrobial activity / spectrum, in words (32 indicator strains; listed as Aquaticin): failed to display antimicrobial activity; antimicrobial activity / spectrum, in words (32 indicator strains; listed as aquaticin): activity was not seen
–KYYGNGVHCG-KKTCYVDWGQATASIGKIIVNGWTQHGPWAHR———- (disulfide) [Penocin A (PenA), previously characterized class IIa bacteriocin, here encoded by P. pentosaceus DSM 20336, heterologously expressed] | ++ (++ = 320 – 2560 BU/ml) | + (+ = 0 – 160 BU/ml) | 12 | 1.33 ± 0.94 | 1.33 ± 0.94 | 0.67 ± 0.47 | 0.67 ± 0.47 | 2 ± 1.41 | 0.67 ± 0.47 | 1.50 ± 1.08 | 0.67 ± 0.47 | 2.50 ± 0.41 | – | radius of the zone of inhibition (L. amylophilus DSM 20509): 0.67 ± 0.47 millimeters; radius of the zone of inhibition (P. clausenii DSM 14800): 1 ± 0.82 millimeters; radius of the zone of inhibition [8]: 0.67 ± 0.47 millimeters
–KYYGNGVSCG-KHSCSVDWGKATTCTINNSAMAWATSGHQGNHKC—- (bicyclic or more) [Rennicin B (RenB), novel pediocin-like class IIa bacteriocin encoded by L. rennini DSM 20253, heterologously expressed] | – | + (+ = 0 – 160 BU/ml) | 0 | – | – | – | – | – | – | – | – | – | – | level of activity when expressed in L. paracasei NFBC338, in words (L. innocua DPC3572; expressed in L. paracasei NFBC338): equal levels of activity compared to rennicin A; antimicrobial activity / spectrum, in words (32 indicator strains): failed to display antimicrobial activity; also recorded: did not display activity
–KYYGNGVSCG-KHTCKVNWGQAWNESVNRWGNSWVNGLTGLRQH— (disulfide) [Futcin (Fut), novel pediocin-like class IIa bacteriocin encoded by L. futsaii JCM 17355, heterologously expressed] | + (+ = 0 – 160 BU/ml) | – | – | 2 ± 0 | 1.83 ± 0.24 | 0.83 ± 0.24 | – | 3 ± 0 | 1.67 ± 0.47 | 2.17 ± 0.85 | 1 ± 0 | 2.00 ± 0 | 0.33 ± 0.47 | Total no. of strains inhibited (32 indicator strains; listed as Fut): 9; Total no. of strains inhibited (32 indicator strains; listed as futcin): nine
–KYYGNGVSCS-KHSCSVDWGKALTCTINNGAMAWTTGGHQGNHKC—- (bicyclic or more) [Rennicin A (RenA), novel pediocin-like class IIa bacteriocin encoded by L. rennini DSM 20253, heterologously expressed] | + (+ = 0 – 160 BU/ml) | + (+ = 0 – 160 BU/ml) | 10 | 2.33 ± 0.47 | 3.33 ± 0.47 | 2 ± 1.41 | 2 ± 0 | 1.50 ± 0.41 | 3 ± 0 | 1 ± 0 | 2.67 ± 0.47 | 6.33 ± 0.94 | 0.67 ± 0.47 | –
—-KYYGNGLHIPKHGKPYINWGQAIQSIGKISYHGWVNGITSGAAGVGRH [Acidicin (Acd), novel pediocin-like class IIa bacteriocin encoded by L. acidipiscis DSM 15836, heterologously expressed] | – | – | 1 | – | – | – | – | – | – | 1.50 ± 0.41 | – | – | – | antimicrobial activity / spectrum, in words (32 indicator strains): displayed activity exclusively against L. mali
